Values joined by “and” are separate entries in the source; they are usually repeats but may differ in a detail not shown here. Identical values can stand only once. “Also recorded” adds a separate entry of the source. Like-named read-outs stand apart in the source and are kept apart here. *1 amine or outer side, *2 acyl side, *3 side chain or, on linkers, in order; H or OH if unused. Where a SMILES comes first, the peptide text is derived from it. Bridges are numbered along the chain shown (N, C = ends). Roman numbers before positions name the chains, in order. [ ]: non-standard residue; d: D form. Actinocin(9to1) = Cc1c2oc3c(C)ccc(C(=O)[*:1])c3nc-2c(C(=O)[*:2])c(N)c1=O; NMeV = CN[C@H](C(=O)O)C(C)C; Sar = CNCC(=O)O
Tests used:
human ACE2 = biological target: T1, human ACE2 (Homo sapiens, UniProt Q9BYF1); experiment: biochemical; assay type: binding; conditions: immobilized recombinant human ACE2; ± one SD; read-out: KD (nM) determined by SPR
T1 construct: purchased Assay Matrix; R&D Systems

[1] = biological target: T2, RBD-mimic1 peptide-ACE2 interaction (Homo sapiens, UniProt Q9BYF1); experiment: SPR competition (ABA injection) between compound and RBD-mimic1 peptide for immobilized ACE2; assay type: binding; conditions: for inhibition at 1 µM: read-out: 1:1 competition between compound vs RBD-mimic1 peptide at 1 μM
T2 construct: purchased Assay Matrix; R&D Systems (ACE2); Mimotopes, Australia (peptide)

[2] = biological target: human ACE2-VLP spike protein interaction (UniProt P0DTC2+Q9BYF1); assay type: binding, SARS-CoV-2
[3] = system: SARS-CoV-2 infection of Vero-E6 cells; experiment: Dose-response inhibition of SARS-CoV-2 infection of Vero-E6 cells (24 h, in situ ELISA); assay type: cell-based; conditions: for IC50: Severe acute respiratory syndrome coronavirus 2, Vero C1008, 24 h infection, Vero-E6, MOI 0.12, read-out: IC50 (μM) Mean ± SD; for SI (selectivity index, CC50/IC50): Vero-E6 cells
[4] = system: SARS-CoV-2 infection of Vero-E6 cells; conditions: for Screening data: 48 h
[5] = cited from earlier work
in vitro = conditions: African green monkey
SARS-CoV-2 spike protein = biological target: T3, SARS-CoV-2 spike protein (Severe acute respiratory syndrome coronavirus 2, UniProt P0DTC2); experiment: biochemical; assay type: binding
T3 construct: made in house; host or cells: HEK 293 cells

human albumin = conditions: cited from earlier work
[6] = indicative of published Cmax values, ref not given, read-out: Cmax

T2 sequence (Q9BYF1 18-740 limits assumed): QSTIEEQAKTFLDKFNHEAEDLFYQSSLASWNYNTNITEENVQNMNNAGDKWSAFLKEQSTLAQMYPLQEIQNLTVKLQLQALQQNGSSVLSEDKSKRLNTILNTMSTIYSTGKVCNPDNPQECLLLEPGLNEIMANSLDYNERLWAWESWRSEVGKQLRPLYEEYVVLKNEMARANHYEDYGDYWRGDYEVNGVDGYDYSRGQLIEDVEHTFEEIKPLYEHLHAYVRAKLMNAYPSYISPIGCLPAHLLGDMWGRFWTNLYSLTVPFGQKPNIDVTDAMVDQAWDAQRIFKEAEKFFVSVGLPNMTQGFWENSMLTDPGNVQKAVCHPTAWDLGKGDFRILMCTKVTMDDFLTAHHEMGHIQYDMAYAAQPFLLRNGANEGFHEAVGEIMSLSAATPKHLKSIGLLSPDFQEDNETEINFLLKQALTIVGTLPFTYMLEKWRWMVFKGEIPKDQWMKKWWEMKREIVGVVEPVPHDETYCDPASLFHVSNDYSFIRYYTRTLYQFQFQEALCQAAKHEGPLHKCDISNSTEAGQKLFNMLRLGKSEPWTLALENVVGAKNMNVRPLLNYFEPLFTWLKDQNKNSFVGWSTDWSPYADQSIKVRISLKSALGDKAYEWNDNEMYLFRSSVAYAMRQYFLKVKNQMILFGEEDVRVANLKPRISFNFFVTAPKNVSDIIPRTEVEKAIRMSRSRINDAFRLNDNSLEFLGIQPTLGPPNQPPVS
human ACE2-VLP spike protein interaction, sequence (Q9BYF1 18-740, one chain of several): as the sequence (Q9BYF1 18-740 limits assumed) above
T1 sequence (Q9BYF1 18-805): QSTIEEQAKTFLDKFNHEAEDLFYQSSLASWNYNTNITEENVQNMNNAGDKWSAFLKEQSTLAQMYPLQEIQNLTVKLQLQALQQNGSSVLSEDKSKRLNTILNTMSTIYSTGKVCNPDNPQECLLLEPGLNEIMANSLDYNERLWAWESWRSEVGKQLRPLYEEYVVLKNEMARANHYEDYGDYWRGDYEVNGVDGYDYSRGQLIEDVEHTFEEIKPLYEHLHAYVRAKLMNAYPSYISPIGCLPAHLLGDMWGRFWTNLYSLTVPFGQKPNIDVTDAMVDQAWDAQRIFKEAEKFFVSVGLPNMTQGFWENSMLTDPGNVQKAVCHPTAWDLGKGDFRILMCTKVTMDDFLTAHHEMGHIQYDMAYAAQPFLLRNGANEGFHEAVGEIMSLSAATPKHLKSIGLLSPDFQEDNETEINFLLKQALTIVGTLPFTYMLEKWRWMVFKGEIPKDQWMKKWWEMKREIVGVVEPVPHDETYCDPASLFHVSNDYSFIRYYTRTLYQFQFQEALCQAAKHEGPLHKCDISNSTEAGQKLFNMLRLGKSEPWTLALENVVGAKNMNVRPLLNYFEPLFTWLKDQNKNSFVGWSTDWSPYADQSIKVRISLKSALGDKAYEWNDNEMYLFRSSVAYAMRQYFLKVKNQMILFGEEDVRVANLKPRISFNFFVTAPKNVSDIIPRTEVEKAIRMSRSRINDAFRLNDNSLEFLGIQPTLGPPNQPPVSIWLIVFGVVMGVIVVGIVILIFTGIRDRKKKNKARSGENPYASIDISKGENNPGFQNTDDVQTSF

Molecule | Kd (human ACE2) | inhibition at 1 µM [1] | 1:1 Competition between compound vs CoV2 VLP [2] | IC50 [3] | Screening result at the highest concentration tested [4] | Cmax [5, 6] | CC50 (in vitro) | Blocking (%) [2] | other results
CC#CC(=O)N1CCC[C@H]1c1nc(-c2ccc(C(=O)Nc3ccccn3)cc2)c2c(N)nccn12 [Acalabrutinib] | 25.7 ± 0.91 nM | 77.4% | 81.2% ± 12.9 | 184 µM | toxic | 1.77 µM | 406 ± 21.2 µM |  | SI (selectivity index, CC50/IC50) [3]: 2.2; Screening data ([4]; 100 μM): 100 μM: inactive
Cc1cc(O)c(C(=O)N[C@@H](C(=O)N[C@@H]2C(=O)N3C(C(=O)O)=C(CSc4nnnn4C)CS[C@H]23)c2ccc(O)cc2)cn1 [Cefpiramide] |  |  |  | > 1500 µM | active | 88 µM | > 1000 µM | 81.9% and 81.9 ± 8.4% | Initial SPR screening for binding to the VLP spike protein (SARS-CoV-2 spike protein): binding; Kd (SARS-CoV-2 spike protein): 0.33 µM; Activity against SARS-CoV-2 infection in dose-response experiments ([3]; at […]): inactive; Cytotoxicity in screening at the highest concentration tested [4]: no apparent cytotoxicity; Screening data ([4]; 800 μM): 800 μM: ∼50% active; Cmax ([5]; intravenous, maximum dose 2,000 mg, single dose, read-out: Cmax): 205 µM
COc1cc(-c2ccc(/N=N/c3ccc4c(S(=O)(=O)O)cc(S(=O)(=O)O)c(N)c4c3O)c(OC)c2)ccc1/N=N/c1ccc2c(S(=O)(=O)O)cc(S(=O)(=O)O)c(N)c2c1O [Chicago sky blue] | 349 ± 29.8 nM | 2.47% | 7.29% ± 1.64 |  |  |  |  |  | 
Cc1c2oc3c(C)ccc(C(=O)N[C@@H]4C(=O)N[C@H](C(C)C)C(=O)N5CCC[C@H]5C(=O)N(C)CC(=O)N(C)[C@@H](C(C)C)C(=O)O[C@@H]4C)c3nc-2c(C(=O)N[C@@H]2C(=O)N[C@H](C(C)C)C(=O)N3CCC[C@H]3C(=O)N(C)CC(=O)N(C)[C@@H](C(C)C)C(=O)O[C@@H]2C)c(N)c1=O [Dactinomycin] (I: T[dV]P[Sar][NMeV] / II: T[dV]P[Sar][NMeV]; ester I:1-I:C, II:1-II:C; linker I:N-II:N via Actinocin(9to1)) |  |  |  |  |  |  |  | 69.7 ± 1.8% | Initial SPR screening for binding to the VLP spike protein (SARS-CoV-2 spike protein): binding
C[C@H]1O[C@@H](O[C@H]2[C@@H](O)C[C@H](O[C@H]3[C@@H](O)C[C@H](O[C@H]4CC[C@@]5(C)[C@H](CC[C@@H]6[C@@H]5CC[C@]5(C)[C@@H](C7=CC(=O)OC7)CC[C@]65O)C4)O[C@@H]3C)O[C@@H]2C)C[C@H](O)[C@@H]1O [Digitoxin] | 1480 ± 87.6 nM | 25.1% | 23.6% ± 4.25 |  |  |  |  |  | 
C[C@H]1O[C@@H](O[C@H]2[C@@H](O)C[C@H](O[C@H]3[C@@H](O)C[C@H](O[C@H]4CC[C@@]5(C)[C@H](CC[C@@H]6[C@@H]5C[C@@H](O)[C@]5(C)[C@@H](C7=CC(=O)OC7)CC[C@]65O)C4)O[C@@H]3C)O[C@@H]2C)C[C@H](O)[C@@H]1O [Digoxin] | 1250 ± 97.2 nM | 27.6% | 31.5% ± 4.55 |  |  |  |  |  | 
Cc1cc(-c2ccc(/N=N/c3ccc4c(S(=O)(=O)O)cc(S(=O)(=O)O)c(N)c4c3O)c(C)c2)ccc1/N=N/c1ccc2c(S(=O)(=O)O)cc(S(=O)(=O)O)c(N)c2c1O [Evans blue] | 1.6 nM and 1.63 nM | 99.8% | 98.9% ± 6.43 | 28.1 ± 1.2 µM | active |  | > 1000 µM | 78.2 ± 6.3% | Inhibition of the RBD-mimic1 peptide-ACE2 interaction (in words) ([1]; 1:1 ratio at 1 μM): complete inhibition; Initial SPR screening for binding to the VLP spike protein (SARS-CoV-2 spike protein): binding; Cytotoxicity in screening at the highest concentration tested [4]: no apparent cytotoxicity; Cytotoxicity toward Vero-E6 cells (Vero-E6 cells; at 1,000 μM): no cytotoxicity; Affinity for human albumin (human albumin): low μM range
CCc1c2c(nc3ccc(OC(=O)N4CCC(N5CCCCC5)CC4)cc13)-c1cc3c(c(=O)n1C2)COC(=O)[C@]3(O)CC [Irinotecan] | 825 ± 112 nM | 100% | 100% ± 9.17 |  |  |  |  |  | Inhibition of the RBD-mimic1 peptide-ACE2 interaction (in words) ([1]; 1:1 ratio at 1 μM): complete inhibition; also recorded: complete blocking; Toxicity to Vero-E6 cells (in words, discussion) [4]: toxic
COC(=O)N[C@H](C(=O)N1CC2(CC2)C[C@H]1c1ncc(-c2ccc3c(c2)C(F)(F)c2cc(-c4ccc5nc([C@@H]6[C@H]7CC[C@H](C7)N6C(=O)[C@@H](NC(=O)OC)C(C)C)[nH]c5c4)ccc2-3)[nH]1)C(C)C [Ledipasvir] | 417 ± 50.7 nM | 79.4% | 84.9% ± 7.3 |  |  | 0.406 µM | > 1000 µM |  | Toxicity to Vero-E6 cells (in words, discussion) [4]: toxic; Screening data ([4]; 400 μM): 400 μM: inactive
N[C@@H](Cc1ccc(O)c(O)c1)C(=O)O [Levodopa] | 13.6 ± 0.97 nM | 36.4% | 42.1% ± 5.17 |  |  |  |  |  | 
Cc1ccc(NC(=O)C2(c3ccc4c(c3)OC(F)(F)O4)CC2)nc1-c1cccc(C(=O)O)c1 [Lumacaftor] |  |  |  | 84 ± 3.7 µM | active | 5.42 µM | 314 ± 22.7 µM | 71.4 ± 3.1% | Kd (SARS-CoV-2 spike protein): 1.51 µM; SI (selectivity index, CC50/IC50) [3]: 3.7; Cytotoxicity in screening at the highest concentration tested [4]: no apparent cytotoxicity
COc1ccc2c(O[C@@H]3C[C@H]4C(=O)N[C@]5(C(=O)NS(=O)(=O)C6CC6)C[C@H]5/C=C\CCCCN(C)C(=O)[C@@H]4C3)cc(-c3nc(C(C)C)cs3)nc2c1C [Simeprevir] |  |  |  |  | toxic | 2.59 µM | 16.4 ± 0.8 µM | 88.6 ± 7.2% | Toxicity to Vero-E6 cells (in words, discussion) [4]: toxic; Screening data ([4]; 10 μM): 100 μM: toxic, 10 μM: inactive; Screening data ([4]; 100 μM): 100 μM: toxic, 10 μM: inactive
CS(=O)(=O)c1cccc(C[C@H](NC(=O)c2c(Cl)cc3c(c2Cl)CCN(C(=O)c2ccc4ccoc4c2)C3)C(=O)O)c1 [Sodium lifitegrast] |  |  |  | 1300 µM | active |  | > 5000 µM | 99.8% and 99.8 ± 6.4% | Kd (SARS-CoV-2 spike protein): 0.00192 µM; SI (selectivity index, CC50/IC50) [3]: >3.9; Cytotoxicity in screening at the highest concentration tested [4]: no apparent cytotoxicity; Cytotoxicity toward Vero-E6 cells (Vero-E6 cells): noncytotoxic; Cmax ([5]; in blood, indicative of published Cmax values, ref not given, read-out: Cmax in blood): 0.0027 ± 0.0021 µM; Cmax ([5]; in tears, indicative of published Cmax values, ref not given, read-out: Cmax in tears (converted)): 143 µM
Cc1ccc(C(=O)Nc2ccc(S(=O)(=O)O)c3cc(S(=O)(=O)O)cc(S(=O)(=O)O)c23)cc1NC(=O)c1cccc(NC(=O)Nc2cccc(C(=O)Nc3cc(C(=O)Nc4ccc(S(=O)(=O)O)c5cc(S(=O)(=O)O)cc(S(=O)(=O)O)c45)ccc3C)c2)c1 [Suramin] |  |  |  | 46.2 ± 1.6 µM |  | 1.89 µM | > 1000 µM |  | SI (selectivity index, CC50/IC50) [3]: >21.6; Antiviral potency [4]: 100%
COC[C@H]1C[C@@H](c2ncc(-c3ccc4c(c3)COc3cc5c(ccc6nc([C@@H]7CC[C@H](C)N7C(=O)[C@@H](NC(=O)OC)C(C)C)[nH]c65)cc3-4)[nH]2)N(C(=O)[C@H](NC(=O)OC)c2ccccc2)C1 [Velpatasvir] | 24.9 ± 4.24 nM | 61.4% | 68.1% ± 9.44 |  | toxic | 0.293 ± 0.0612 µM |  |  | Toxicity to Vero-E6 cells (in words, discussion) [4]: toxic; Screening data ([4]; 100 μM): 500 μM: toxic, 100 μM: inactive; Screening data ([4]; 500 μM): 500 μM: toxic, 100 μM: inactive
CC1(C)CCC(CN2CCN(c3ccc(C(=O)NS(=O)(=O)c4ccc(NCC5CCOCC5)c([N+](=O)[O-])c4)c(Oc4cnc5[nH]ccc5c4)c3)CC2)=C(c2ccc(Cl)cc2)C1 [Venetoclax] | 290 ± 31.1 nM | 66.3% | 69.1% ± 7.31 |  | toxic | 2.4 ± 1.3 µM | 4.9 ± 2.2 µM |  | Screening result at lower concentrations [4]: inactive; Screening data ([4]; 10 μM): 10 μM: 40 % active
CO[C@H]1C[C@@H]2CC[C@@H](C)[C@@](O)(O2)C(=O)C(=O)N2CCCC[C@H]2C(=O)O[C@H]([C@H](C)C[C@@H]2CC[C@H](n3cnnn3)[C@H](OC)C2)CC(=O)[C@H](C)/C=C(\C)[C@@H](O)[C@@H](OC)C(=O)[C@H](C)C[C@H](C)/C=C/C=C/C=C/1C [Zotarolimus] | 2760 ± 178 nM | 69.4% | 71.6% ± 6.47 |  |  |  |  |  | 
Epigallocatechin-3-gallate |  |  | 33.8% ± 4.67 |  |  |  |  |  | 1:1 competition between compound vs RBD-mimic1 peptide at 1 μM ([1]; 1:1 ratio at 1 μM, immobilized ACE2): 28.9% ± 1.43

— paper PMC8092326 (mBio, 2021)
